Data taken from US20230295162A1 (EÖTVÖS LORÁND TUDOMÁNYEGYETEM, priority 2020, published 2023).
Where two headings read alike, the source gives them in different places.

Tests used:
[1] = test system: Panc1 pancreatic cancer cell line; assay: CellTiter-Glo IC50 (Example 19); type: cell-based; details: Homo sapiens, PANC-1, 72 h
Method: Some representative imipridones and ONC212 as reference were further tested on the following human malignant cell lines: PC3 and LNCap (prostate carcinoma); BxPC3, MiaPaCa2 and Panc1 (pancreatic cancer); A549, HCC827, H1993 and H520 (lung carcinoma); MDA-MB-453 and MDA-MB-231 (breast cancer) (see Table 2 and FIGS. 1-11).
Cell lines were maintained according to the instructions provided by ATCC (https://www.lgcstandards-atcc.org/) in a 5% CO2 humidified incubator maintained at 37° C. temperature. Effects of compounds on cell viability were measured via CellTiter-Glo® luminescent cell viability assay (Promega, Madison, WI, USA) Cells were plated at 1000 cells/well onto a flat-bottomed, white 96 well plate (BRANDplates, cat. no.: 781965). […] After the treatment, medium was removed and CellTiter-Glo® reagent was added. The luminescence signal was recorded using a microplate reader (BioTek Synergy 2 Multi-Mode Reader, BioTek, Winooski, VT, USA).
Cell viability data (% of untreated control cells) was evaluated with Microsoft Excel. Dose-response curves (using a non-linear regression model, log (inhibitor) vs response, variable slope) were generated and IC50 values were determined using Graph Pad Prism 5.02 software (GraphPad Software, San Diego, CA, USA).

[2] = test system: PANC-1 (human pancreatic carcinoma) cells; assay: Impedance-based viability assay (xCELLigence SP), long treatment; type: cell-based; details: 72 h, read-out: cytotoxicity expressed in IC50, PANC-1
Text: (Gibco®/Invitrogen Corporation, New York, NY, USA).
Data obtained from each experiment represent mathematical averages.

[3] = test system: Capan-1 (pancreas, adenocarcinoma) cells; assay: Cell viability assay, CellTiter-Glo (Example 21); type: cell-based, human; details: 72 h treatment
Summary of the method: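 Viability of Capan-1 pancreatic adenocarcinoma cells was assessed using Promega's CellTiter-Glo® luminescence kit. Cells were plated at 1000 cells/well in white, flat-bottom 96 well plates, treated, then luminescence was recorded on a BioTek Synergy 2 reader. Dose-response curves were fitted in GraphPad Prism 8.4.2 with a four-parameter variable-slope non-linear regression.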

[4] = test system: MDA-MB-231 (breast, adenocarcinoma) cells; assay: Cell viability assay, CellTiter-Glo (Example 21); type: cell-based, human; details: 72 h treatment
Summary of the method: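 Viability of MDA-MB-231 cells was quantified by luminescence using Promega's CellTiter-Glo® kit per manufacturer instructions. Cells, plated at a size- and growth-optimized density of 1500 cells/well in white flat-bottom 96 well plates, were treated and then read on a BioTek Synergy 2 reader; dose-response curves used four-parameter variable-slope non-linear regression in GraphPad Prism 8.4.2.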

[5] = test system: Panc-1 (pancreas, carcinoma) cells; assay: Cell viability assay, CellTiter-Glo (Example 21); type: cell-based, human; details: 72 h treatment
Summary of the method: (§1)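 Cells were seeded at optimized densities (Panc-1 750, FaDu 1000, Detroit 562 and MDA-MB-453 1500 cells/well), then treated with compound. Viability was read by CellTiter-Glo luminescence. Dose-response curves were fitted by four-parameter variable-slope non-linear regression.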

[6] = test system: DU 145 (prostate, carcinoma) cells; assay: Cell viability assay, CellTiter-Glo (Example 21); type: cell-based, human; details: 72 h
Summary of the method: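 DU 145 prostate carcinoma cells were plated at 1000 cells/well in white flat-bottom 96 well plates and exposed to compound. Viability was then determined by CellTiter-Glo® luminescence on a BioTek Synergy 2 reader, and dose-response curves were fitted in GraphPad Prism 8.4.2 with a four-parameter variable-slope non-linear regression.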

[7] = test system: MDA-MB-453 (breast, carcinoma) cells; assay: Cell viability assay, CellTiter-Glo (Example 21); type: cell-based, human; details: 72 h treatment
Summary of the method: as §1

[8] = test system: LNCaP (prostate, carcinoma) cells; assay: Cell viability assay, CellTiter-Glo (Example 21); type: cell-based, human; details: 72 h
Summary of the method: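 Flat-bottomed white 96 well plates received 1500 LNCaP cells per well, a density chosen to suit the cells' size and growth rate. Following compound treatment, viability was measured by CellTiter-Glo® luminescence per the manufacturer's protocol, with signal recorded on a BioTek Synergy 2 reader. GraphPad Prism 8.4.2 generated dose-response curves using a four-parameter, variable-slope non-linear regression model.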

[9] = test system: PC-3 (prostate, adenocarcinoma) cells; assay: Cell viability assay, CellTiter-Glo (Example 21); type: cell-based, human; details: 72 h treatment
Summary of the method: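 Cancer cell viability was assessed by luminescence using Promega's CellTiter-Glo® kit. PC-3 cells, plated at a density of 1000 cells/well in white flat-bottom 96 well plates, were exposed to test compounds, after which signals were measured on a microplate reader and dose-response curves fitted by four-parameter variable-slope non-linear regression in GraphPad Prism 8.4.2.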

[10] = test system: MIA PaCa-2 (pancreas, carcinoma) cells; assay: Cell viability assay, CellTiter-Glo (Example 21); type: cell-based, human; details: 72 h treatment
Summary of the method: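 Cell viability of MIA PaCa-2 cells was assessed by CellTiter-Glo® luminescence (Promega, Madison, WI, USA). Cells were plated at 1000 cells/well, a density chosen for their size and growth rate, in white flat-bottomed 96 well plates. After treatment, the signal was recorded on a BioTek microplate reader, and dose-response curves were fitted in GraphPad Prism 8.4.2 with a four-parameter variable-slope non-linear regression.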

[11] = test system: SCC-25 (tongue, squamous cell carcinoma) cells; assay: Cell viability assay, CellTiter-Glo (Example 21); type: cell-based, human; details: 72 h treatment
Summary of the method: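 Cell viability of SCC-25 cells was assessed by CellTiter-Glo luminescence after compound exposure. Cells were plated at 1000 cells/well, a density chosen for their size and growth rate, on white flat-bottom 96 well plates. Signal was recorded on a microplate reader, and dose-response curves were fitted in GraphPad Prism by four-parameter variable-slope non-linear regression.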

[12] = test system: Detroit 562 (pharynx, carcinoma) cells; assay: Cell viability assay, CellTiter-Glo (Example 21); type: cell-based, human; details: 72 h treatment
Summary of the method: as §1

[13] = test system: EBC-1 (lung, squamous cell carcinoma) cells; assay: Cell viability assay, CellTiter-Glo (Example 21); type: cell-based, human; details: 72 h treatment
Summary of the method: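 The CellTiter-Glo luminescent cell viability assay (Promega) was used to test compound effects on EBC-1 cells. Cells were plated at 1000 cells/well on white flat-bottom 96 well plates, treated, then read for luminescence on a microplate reader. Dose-response curves were fitted by four-parameter variable-slope non-linear regression.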

Panc-1 human cell line = assay: Cytotoxicity on Panc-1, xCELLigence SP, IC50 after 24 h, 48 h, 72 h and 96 h (Example 22)

O=C1C2=C(CCN(Cc3cc(F)cc(F)c3)C2)N2CCN=C2N1Cc1ccc(C(F)(F)F)cc1 [I/30, 7-(3,5-Difluorobenzyl)-4-(4-(trifluoromethyl)benzyl)-2,4,6,7,8,9-hexahydroimidazo[1,2-a]pyrido[3,4-e]pyrimidin-5(1H)-one]
IC50 [1]: 3 nM
IC50 [2]: 4 nM
Capan-1 (pancreas, adenocarcinoma) cell viability (% of control) ([3]; 3.7 nM): 100.8 ± 5.3 % of control
Capan-1 (pancreas, adenocarcinoma) cell viability (% of control) ([3]; 11.1 nM): 38.4 ± 4.5 % of control
Capan-1 (pancreas, adenocarcinoma) cell viability (% of control) ([3]; 100 nM): 34.0 ± 2.8 % of control
Capan-1 (pancreas, adenocarcinoma) cell viability (% of control) ([3]; 300 nM): 33.1 ± 1.7 % of control
MDA-MB-231 (breast, adenocarcinoma) cell viability (% of control) ([4]; 3.7 nM): 100.0 ± 4.5 % of control
MDA-MB-231 (breast, adenocarcinoma) cell viability (% of control) ([4]; 11.1 nM): 59.9 ± 2.1 % of control
MDA-MB-231 (breast, adenocarcinoma) cell viability (% of control) ([4]; 100 nM): 52.1 ± 1.8 % of control
MDA-MB-231 (breast, adenocarcinoma) cell viability (% of control) ([4]; 300 nM): 52.6 ± 2.5 % of control
Panc-1 (pancreas, carcinoma) cell viability (% of control) ([5]; 3.7 nM): 100.8 ± 3.4 % of control
Panc-1 (pancreas, carcinoma) cell viability (% of control) ([5]; 11.1 nM): 54.4 ± 3.5 % of control
Panc-1 (pancreas, carcinoma) cell viability (% of control) ([5]; 100 nM): 46.4 ± 3.1 % of control
Panc-1 (pancreas, carcinoma) cell viability (% of control) ([5]; 300 nM): 49.1 ± 0.2 % of control
DU 145 cell viability ([6]; 3.7 nM): 37.2 ± 10.4 % of control
DU 145 cell viability ([6]; 11.1 nM): 7.0 ± 0.9 % of control
DU 145 cell viability ([6]; 100 nM): 7.0 ± 1.1 % of control
DU 145 cell viability ([6]; 300 nM): 8.0 ± 2.9 % of control
MDA-MB-453 (breast, carcinoma) cell viability (% of control) ([7]; 3.7 nM): 58.0 ± 24.4 % of control
MDA-MB-453 (breast, carcinoma) cell viability (% of control) ([7]; 11.1 nM): 34.8 ± 3.3 % of control
MDA-MB-453 (breast, carcinoma) cell viability (% of control) ([7]; 100 nM): 31.1 ± 1.8 % of control
MDA-MB-453 (breast, carcinoma) cell viability (% of control) ([7]; 300 nM): 28.9 ± 1.0 % of control
LNCaP cell viability ([8]; 3.7 nM): 29.6 ± 2.5 % of control
LNCaP cell viability ([8]; 11.1 nM): 15.0 ± 0.4 % of control
LNCaP cell viability ([8]; 100 nM): 11.4 ± 0.6 % of control
LNCaP cell viability ([8]; 300 nM): 11.3 ± 1.1 % of control
PC-3 (prostate, adenocarcinoma) cell viability (% of control) ([9]; 3.7 nM): 78.9 ± 4.6 % of control
PC-3 (prostate, adenocarcinoma) cell viability (% of control) ([9]; 11.1 nM): 36.6 ± 1.8 % of control
PC-3 (prostate, adenocarcinoma) cell viability (% of control) ([9]; 100 nM): 32.1 ± 3.6 % of control
PC-3 (prostate, adenocarcinoma) cell viability (% of control) ([9]; 300 nM): 31.3 ± 2.5 % of control
MIA PaCa-2 (pancreas, carcinoma) cell viability (% of control) ([10]; 3.7 nM): 65.7 ± 12.6 % of control
MIA PaCa-2 (pancreas, carcinoma) cell viability (% of control) ([10]; 11.1 nM): 19.1 ± 8.0 % of control
MIA PaCa-2 (pancreas, carcinoma) cell viability (% of control) ([10]; 100 nM): 16.7 ± 6.7 % of control
MIA PaCa-2 (pancreas, carcinoma) cell viability (% of control) ([10]; 300 nM): 17.6 ± 7.6 % of control
SCC-25 (tongue, squamous cell carcinoma) cell viability (% of control) ([11]; 3.7 nM): 78.7 ± 15.0 % of control
SCC-25 (tongue, squamous cell carcinoma) cell viability (% of control) ([11]; 11.1 nM): 35.0 ± 14.5 % of control
SCC-25 (tongue, squamous cell carcinoma) cell viability (% of control) ([11]; 100 nM): 32.9 ± 2.1 % of control
SCC-25 (tongue, squamous cell carcinoma) cell viability (% of control) ([11]; 300 nM): 36.3 ± 2.6 % of control
Detroit 562 (pharynx, carcinoma) cell viability (% of control) ([12]; 3.7 nM): 31.9 ± 6.7 % of control
Detroit 562 (pharynx, carcinoma) cell viability (% of control) ([12]; 11.1 nM): 27.0 ± 5.5 % of control
Detroit 562 (pharynx, carcinoma) cell viability (% of control) ([12]; 100 nM): 24.7 ± 2.9 % of control
Detroit 562 (pharynx, carcinoma) cell viability (% of control) ([12]; 300 nM): 28.7 ± 2.5 % of control
EBC-1 (lung, squamous cell carcinoma) cell viability (% of control) ([13]; 3.7 nM): 76.4 ± 2.2 % of control
EBC-1 (lung, squamous cell carcinoma) cell viability (% of control) ([13]; 11.1 nM): 24.8 ± 1.1 % of control
EBC-1 (lung, squamous cell carcinoma) cell viability (% of control) ([13]; 100 nM): 21.3 ± 0.6 % of control
EBC-1 (lung, squamous cell carcinoma) cell viability (% of control) ([13]; 300 nM): 20.1 ± 0.0 % of control
IC50 (Panc-1 human cell line; PANC-1, 72 h, read-out: IC50 (72 h) [nM]): 2.08 ± 0.267 nM
IC50 (Panc-1 human cell line; PANC-1, 96 h, read-out: IC50 (96 h) [nM]): 0.517 ± 0.0232 nM
